Assay results: US20220273683A1, “BORON-CONTAINING SMALL MOLECULES” (Bill & Melinda Gates Foundation, priority 2016, published 2022)

How the values were obtained:
Assay type in all cases: cell-based
[1] = system: Streptococcus pneumoniae (ATCC 49619); experiment: Antibacterial MIC assay (microbroth dilution, CLSI); conditions: 3% lysed horse blood, 35° C., 16-20 hours
How it was run: (§1)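 Microbroth dilution per CLSI M07-A10/M100-S25 in cation-adjusted Mueller-Hinton broth, with 3% lysed horse blood added for S. pneumoniae. Inoculum from a 0.5 McFarland direct colony suspension, diluted to 5×10^5 CFU/mL in the well. Compounds were 2-fold serially diluted; MIC read against a growth control.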

[2] = system: Staphylococcus aureus, MRSA (ATCC 33591); experiment: as above; conditions: 35° C., 16-20 hours
How it was run: as §1

[3] = system: Wolbachia pipientis in C6/36 cell line; experiment: Anti-Wolbachia high-content assay; conditions: C6/36 (wAlbB) cells, 7 days at 26° C., 50% reduction of Wolbachia
Text: C6/36 cells (ECACC #89051705, derived from Aedes albopictus larvae) were infected with Wolbachia pipientis derived from the supernatant of cultured A. albopictus Aa23 cells to create a stably Wolbachia-infected cell line C6/36 (wAlbB). This cell line was subpassaged 6-8 days prior to plating out at a density of 2000 viable cells per well in a 384-well CellCarrier plate suspended in Liebovitz media supplemented with 20% fetal bovine serum, 2% tryptose phosphate broth and 1% non-essential amino acids. Compounds were dissolved and diluted in DMSO, and compound solution was added to each well to provide a final DMSO concentration <1% and a total volume of 100 μL per well. Following 7 days of sterile incubation at 26° C., staining media containing SYTO 11 DNA dye was added to each well. After 15 minutes, all media was removed from each well and fresh media (no stain) was added. Imaging of each well was accomplished using a Perkin Elmer Operetta high-content imaging system. Five fields per well were imaged using a confocal 60× objective with the Fluorescein filter (excitation filter: 460-490 nm; emission filter: 500-550 nm). Images were analyzed using the Perkin Elmer Harmony software to score each intact cell on the basis of texture complexity of the cytoplasm. Full details can be found in: […]. Biomol. Screening, 2015, 20, […]. Compound sample wells were analyzed and normalized (along with the positive controls) against the vehicle (untreated) control to give a percentage reduction of Wolbachia-infected cells. Using the cell number analysis, compounds with a host cell number amounting to less than 50% of the vehicle control were classified as toxic and retested at a reduced compound concentration. Dose-response curves were generated with percentage reduction of Wolbachia-infected cells versus compound concentration, using 5-10 compound serial dilutions. Data were analyzed and compound EC50 is determined using a 4 parameter logistic nonlinear regression model.

For `CC[C@]1(C)C[C@@H](OC(=O)COc2cc(CN)c3c(c2)B(O)OC3)[C@]2(C)[C@H](C)CC[C@]3(CCC(=O)[C@H]32)[C@@H](C)[C@@H]1O` [Compound 20, (3aR,4R,5R,7R,8S,9R,9aS,12R)-7-ethyl-8-hydroxy-4,7,9,12-tetramethyl-3-oxodecahydro-4,9a-propanocyclopenta[8]annulen-5-yl2-((4-(aminomethyl)-1-hydroxy-1,3-dihydrobenzo[c][1,2]oxaborol-6-yl)oxy)acetate], the “MIC Streptococcus pneumoniae (ATCC 49619)” value (from here on “MIC Streptococcus pneumoniae”) [1] was “B (0.5-2 is B)”, the “MIC Staphylococcus aureus, MRSA (ATCC 33591)” value (shortened to “MIC Staphylococcus aureus”) [2] was “A (MIC of ≤0.25 is A)” and the EC50 [3] was 101 nM.

`CNC[C@H](O)[C@]1(C)C[C@@H](OC(=O)COc2ccc3c(c2F)B(O)OC3)[C@]2(C)[C@H](C)CC[C@]3(CCC(=O)[C@H]32)[C@@H](C)[C@@H]1O` [Compound 28, (3aR,4R,5R,7R,8S,9R,9aS,12R)-8-hydroxy-7-((R)-1-hydroxy-2-(methylamino)ethyl)-4,7,9,12-tetramethyl-3-oxodecahydro-4,9a-propanocyclopenta[8]annulen-5-yl2-((7-fluoro-1-hydroxy-1,3-dihydrobenzo[c][1,2]oxaborol-6-yl)oxy)acetate] was tested, and the “MIC Streptococcus pneumoniae” value [1] was “D (≥64 is D)”, the “MIC Staphylococcus aureus” value [2] was “D (≥64 is D)” and the EC50 [3] was greater than 1000 nM.

`C[C@@H]1CC[C@@]23CCC(=O)[C@H]2[C@]1(C)[C@H](OC(=O)COc1ccc2c(c1F)B(O)OC2)C[C@@](C)(CNS(C)(=O)=O)[C@@H](OS(C)(=O)=O)[C@@H]3C` [Compound 49, (3aR,4R,5R,7S,8S,9R,9aS,12R)-4,7,9,12-tetramethyl-7-(methylsulfonamidomethyl)-8-((methylsulfonyl)oxy)-3-oxodecahydro-4,9a-propanocyclopenta[8]annulen-5-yl2-((7-fluoro-1-hydroxy-1,3-dihydrobenzo[c][1,2]oxaborol-6-yl)oxy)acetate] was tested, and the “MIC Streptococcus pneumoniae” value [1] was “D (≥64 is D)”, the “MIC Staphylococcus aureus” value [2] was “C (4-32 is C)” and the EC50 [3] was greater than 1000 nM.
